Converted amounts (≈) assume the structure as drawn. The source made the active and inactive calls. No cut-off for these calls is given here.
Columns and labels:
[1] = biological target: Bromodomain-containing protein 4 (Homo sapiens, UniProt O60885); assay: Displacement of biotinylated tetra-acetylated histone H4 from His6-tagged BRD4 (1 to 477 aa) (unknown origin) after 1 hr by TR-FRET assay
HepG2 [2] = assay: Upregulation of ApoA1 in human HepG2 cells after 16 hrs by luciferase reporter assay relative to control; assay type: functional
[3] = biological target: Bromodomain-containing protein 3 (Homo sapiens, UniProt Q15059); assay: Displacement of biotinylated tetra-acetylated histone H4 from His6-tagged BRD3 (1 to 475 aa) (unknown origin) after 1 hr by TR-FRET assay
Chain of Bromodomain-containing protein 3 (Q15059 whole entry, the tested form may be a part): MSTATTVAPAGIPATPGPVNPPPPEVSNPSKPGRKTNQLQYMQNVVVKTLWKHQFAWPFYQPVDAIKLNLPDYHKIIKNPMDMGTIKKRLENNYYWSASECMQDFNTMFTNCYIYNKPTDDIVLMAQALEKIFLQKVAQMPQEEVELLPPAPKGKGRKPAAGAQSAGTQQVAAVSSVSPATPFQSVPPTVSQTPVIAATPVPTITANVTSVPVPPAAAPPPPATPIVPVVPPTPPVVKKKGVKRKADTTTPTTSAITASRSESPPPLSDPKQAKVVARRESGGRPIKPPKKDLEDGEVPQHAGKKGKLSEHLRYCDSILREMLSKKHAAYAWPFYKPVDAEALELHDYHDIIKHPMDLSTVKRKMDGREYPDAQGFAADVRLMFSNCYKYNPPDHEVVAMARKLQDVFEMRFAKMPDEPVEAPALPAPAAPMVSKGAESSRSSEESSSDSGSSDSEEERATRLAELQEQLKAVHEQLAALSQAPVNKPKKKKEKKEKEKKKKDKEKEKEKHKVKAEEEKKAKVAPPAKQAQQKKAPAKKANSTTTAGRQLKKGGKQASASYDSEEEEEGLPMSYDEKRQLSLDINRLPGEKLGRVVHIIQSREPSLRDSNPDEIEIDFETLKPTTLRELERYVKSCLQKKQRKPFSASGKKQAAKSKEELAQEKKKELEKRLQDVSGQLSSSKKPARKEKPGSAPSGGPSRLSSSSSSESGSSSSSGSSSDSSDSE

[4] = biological target: Bromodomain-containing protein 2 (Homo sapiens, UniProt P25440); assay: Displacement of biotinylated tetra-acetylated histone H4 from His6-tagged BRD2 (1 to 473 aa) (unknown origin) after 1 hr by TR-FRET assay
Chain of Bromodomain-containing protein 2 (P25440 whole entry, the tested form may be a part): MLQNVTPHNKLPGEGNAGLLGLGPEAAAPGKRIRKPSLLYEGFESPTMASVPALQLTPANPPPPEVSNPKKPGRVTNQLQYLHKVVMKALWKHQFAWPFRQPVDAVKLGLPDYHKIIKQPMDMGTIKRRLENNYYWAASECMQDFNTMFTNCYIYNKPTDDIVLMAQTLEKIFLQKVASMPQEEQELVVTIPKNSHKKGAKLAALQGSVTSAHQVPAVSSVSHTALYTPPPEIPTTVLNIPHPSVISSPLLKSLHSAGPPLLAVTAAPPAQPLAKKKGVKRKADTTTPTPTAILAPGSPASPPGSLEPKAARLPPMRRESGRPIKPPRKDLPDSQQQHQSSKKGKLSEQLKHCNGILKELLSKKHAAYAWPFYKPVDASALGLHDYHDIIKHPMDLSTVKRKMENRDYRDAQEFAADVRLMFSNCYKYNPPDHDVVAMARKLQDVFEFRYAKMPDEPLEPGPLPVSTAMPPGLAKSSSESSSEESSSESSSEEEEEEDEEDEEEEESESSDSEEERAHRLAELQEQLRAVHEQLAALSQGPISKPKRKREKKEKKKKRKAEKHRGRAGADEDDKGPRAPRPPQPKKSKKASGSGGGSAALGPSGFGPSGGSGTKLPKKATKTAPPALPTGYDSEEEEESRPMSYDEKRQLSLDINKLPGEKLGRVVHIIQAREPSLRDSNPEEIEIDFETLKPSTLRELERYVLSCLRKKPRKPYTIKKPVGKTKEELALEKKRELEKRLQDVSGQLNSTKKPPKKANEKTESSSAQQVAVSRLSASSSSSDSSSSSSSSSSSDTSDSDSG

[5] = Solubility of the compound in fasted state simulated intestinal fluid at 125 ug/ml after 16 hrs by HPLC analysis; assay type: ADME; conditions: for solubility at 16 h: fasted state simulated intestinal fluid
HepG2 [6] = assay: Upregulation of ApoA1 in human HepG2 cells at 10 uM after 16 hrs by luciferase reporter assay relative to control; assay type: functional
HepG2 [7] = assay: Upregulation of ApoA1 in human HepG2 cells at 1.25 uM after 16 hrs by luciferase reporter assay relative to control; assay type: functional
Mus musculus [8] = assay: Antiinflammatory activity in Balb/c mouse assessed as inhibition of LPS-induced PAI-1 mRNA expression in liver at 3 mg/kg, po 2 hrs before LPS challenge measured after 2 hrs; assay type: functional, organism-based; design: dose 3 mg/kg
Mus musculus [9] = assay: Antiinflammatory activity in Balb/c mouse assessed as inhibition of LPS-induced PAI-1 mRNA expression in liver administered orally 2 hrs before LPS challenge measured after 2 hrs; assay type: functional, organism-based
PBMC = assay: Inhibition of LPS-induced IL6 production in human PBMC after 18 to 24 hrs by immunoassay; assay type: functional, cell-based
Hepatocyte [10] = assay: Clearance in rat hepatocytes assessed per gram of tissue at 1 uM by LC-MS/MS analysis; assay type: ADME, cell-based
Cytochrome P450 2C9 = Cytochrome P450 2C9 (Homo sapiens, UniProt P11712); assay: Inhibition of CYP2C9 (unknown origin) expressed in Escherichia coli bactosomes using 7-methoxy-4-trifluoromethylcoumarin-3-acetic acid as substrate after 10 mins by fluorescence assay; assay type: ADME
Chain of Cytochrome P450 2C9 (P11712 whole entry): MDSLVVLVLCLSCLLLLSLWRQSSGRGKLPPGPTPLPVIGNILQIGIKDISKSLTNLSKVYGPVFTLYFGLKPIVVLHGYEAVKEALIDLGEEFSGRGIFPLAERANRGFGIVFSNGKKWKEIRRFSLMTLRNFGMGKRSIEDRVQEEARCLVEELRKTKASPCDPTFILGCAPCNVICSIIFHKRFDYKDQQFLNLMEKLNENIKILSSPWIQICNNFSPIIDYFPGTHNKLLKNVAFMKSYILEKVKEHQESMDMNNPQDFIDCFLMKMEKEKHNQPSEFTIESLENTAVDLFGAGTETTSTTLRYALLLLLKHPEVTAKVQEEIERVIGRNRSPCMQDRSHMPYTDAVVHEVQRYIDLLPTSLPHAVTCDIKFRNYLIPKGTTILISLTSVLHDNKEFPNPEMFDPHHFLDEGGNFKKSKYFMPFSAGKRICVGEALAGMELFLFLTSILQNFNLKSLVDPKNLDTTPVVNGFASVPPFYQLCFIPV

Cytochrome P450 2D6 = Cytochrome P450 2D6 (Homo sapiens, UniProt P10635); assay: Inhibition of recombinant human CYP2D6 expressed in Escherichia coli bactosomes using 4-methylaminomethyl-7-methoyxycoumarin as substrate after 10 mins by fluorescence assay; assay type: ADME
Chain of Cytochrome P450 2D6 (P10635 whole entry): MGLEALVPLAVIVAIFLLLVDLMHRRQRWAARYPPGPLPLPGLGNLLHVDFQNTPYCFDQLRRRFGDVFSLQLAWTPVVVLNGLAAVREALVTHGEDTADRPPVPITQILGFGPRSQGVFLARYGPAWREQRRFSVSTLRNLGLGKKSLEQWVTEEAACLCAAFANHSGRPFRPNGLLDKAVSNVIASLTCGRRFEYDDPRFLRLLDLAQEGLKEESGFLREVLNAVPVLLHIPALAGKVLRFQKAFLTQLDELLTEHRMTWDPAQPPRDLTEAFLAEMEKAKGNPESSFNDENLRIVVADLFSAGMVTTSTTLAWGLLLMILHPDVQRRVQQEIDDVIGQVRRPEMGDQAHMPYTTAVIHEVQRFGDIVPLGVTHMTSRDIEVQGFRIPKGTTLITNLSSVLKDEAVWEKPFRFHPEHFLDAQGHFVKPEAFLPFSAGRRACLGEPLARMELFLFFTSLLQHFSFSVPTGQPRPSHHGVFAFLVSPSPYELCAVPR

[11] = Clearance in dog hepatocytes assessed per gram of tissue at 1 uM by LC-MS/MS analysis; assay type: ADME, cell-based, Canis lupus familiaris, Hepatocyte
Hepatocyte [12] = assay: Clearance in human hepatocytes assessed per gram of tissue at 1 uM by LC-MS/MS analysis; assay type: ADME, cell-based
[13] = Clearance in Cynomolgus monkey hepatocytes assessed per gram of tissue at 1 uM by LC-MS/MS analysis; assay type: ADME, cell-based, Macaca fascicularis, Hepatocyte
Cytochrome P450 1A2 = Cytochrome P450 1A2 (Homo sapiens, UniProt P05177); assay: Inhibition of CYP1A2 (unknown origin) expressed in Escherichia coli bactosomes using ethoxyresorufin as substrate after 10 mins by fluorescence assay; assay type: ADME
Chain of Cytochrome P450 1A2 (P05177 whole entry): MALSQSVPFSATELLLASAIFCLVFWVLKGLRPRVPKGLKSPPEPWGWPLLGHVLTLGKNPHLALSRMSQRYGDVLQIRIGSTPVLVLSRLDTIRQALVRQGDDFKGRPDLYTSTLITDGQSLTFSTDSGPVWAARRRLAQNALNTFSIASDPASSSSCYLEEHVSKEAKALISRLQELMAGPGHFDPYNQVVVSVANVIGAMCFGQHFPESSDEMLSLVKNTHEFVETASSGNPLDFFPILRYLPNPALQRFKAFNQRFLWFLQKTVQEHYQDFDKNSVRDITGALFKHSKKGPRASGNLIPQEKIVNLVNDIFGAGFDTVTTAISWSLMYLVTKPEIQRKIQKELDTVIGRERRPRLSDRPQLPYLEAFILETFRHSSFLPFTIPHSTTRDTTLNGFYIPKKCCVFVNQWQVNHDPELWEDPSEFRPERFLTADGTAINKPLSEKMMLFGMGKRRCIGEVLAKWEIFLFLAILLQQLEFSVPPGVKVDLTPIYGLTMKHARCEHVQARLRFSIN

Cytochrome P450 3A4 [14] = biological target: T1, Cytochrome P450 3A4 (Homo sapiens, UniProt P08684); assay: Inhibition of human recombinant CYP3A4 expressed in Escherichia coli bactosomes using 7-benzloxyquinolone as substrate after 10 mins by fluorescence assay; assay type: ADME
T1 sequence (P08684 whole entry): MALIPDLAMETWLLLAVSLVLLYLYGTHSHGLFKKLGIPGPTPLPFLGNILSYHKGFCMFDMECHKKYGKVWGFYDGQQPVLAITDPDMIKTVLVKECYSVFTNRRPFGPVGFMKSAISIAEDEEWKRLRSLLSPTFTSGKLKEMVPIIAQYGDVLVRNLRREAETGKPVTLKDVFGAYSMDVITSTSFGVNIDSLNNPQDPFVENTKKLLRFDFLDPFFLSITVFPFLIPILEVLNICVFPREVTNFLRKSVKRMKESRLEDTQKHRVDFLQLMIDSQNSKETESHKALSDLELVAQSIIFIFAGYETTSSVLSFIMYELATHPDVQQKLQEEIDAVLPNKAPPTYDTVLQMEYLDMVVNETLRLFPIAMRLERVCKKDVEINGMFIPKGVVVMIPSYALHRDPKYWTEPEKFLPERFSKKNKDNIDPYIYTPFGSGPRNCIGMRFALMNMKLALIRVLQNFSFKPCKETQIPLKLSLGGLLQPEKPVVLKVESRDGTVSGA

Blood = assay: Inhibition of LPS-induced IL6 production in human whole blood after 24 hrs by immunoassay; assay type: functional, tissue-based
Cytochrome P450 2C19 = Cytochrome P450 2C19 (Homo sapiens, UniProt P33261); assay: Inhibition of CYP2C19 (unknown origin) expressed in Escherichia coli bactosomes using 3-butyryl-7-methoxycoumarin as substrate after 10 mins by fluorescence assay; assay type: ADME
Chain of Cytochrome P450 2C19 (P33261 whole entry): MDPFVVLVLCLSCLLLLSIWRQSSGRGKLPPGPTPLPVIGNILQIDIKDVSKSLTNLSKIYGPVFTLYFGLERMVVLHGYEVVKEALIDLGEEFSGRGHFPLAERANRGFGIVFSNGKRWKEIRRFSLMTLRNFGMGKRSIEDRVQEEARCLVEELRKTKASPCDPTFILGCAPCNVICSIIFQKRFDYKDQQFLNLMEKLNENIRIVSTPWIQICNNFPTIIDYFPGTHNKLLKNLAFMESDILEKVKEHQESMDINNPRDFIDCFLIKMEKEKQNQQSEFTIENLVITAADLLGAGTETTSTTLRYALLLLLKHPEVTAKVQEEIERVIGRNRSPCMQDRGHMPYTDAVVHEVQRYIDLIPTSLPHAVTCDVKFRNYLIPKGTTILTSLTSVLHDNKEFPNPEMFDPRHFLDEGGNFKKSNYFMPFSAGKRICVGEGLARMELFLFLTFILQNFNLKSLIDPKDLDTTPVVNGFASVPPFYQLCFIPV

Cytochrome P450 3A4 [15] = biological target: T1, Cytochrome P450 3A4; assay: Inhibition of human recombinant CYP3A4 expressed in Escherichia coli bactosomes using diethoxyfluorescein as substrate after 10 mins by fluorescence assay; assay type: ADME

SMILES | IC50 [1] | pEC170 (HepG2 [2]) | IC50 [3] | IC50 [4] | also measured
CC(=O)N1c2ccc(-c3ccc(CN4CCCCC4)cc3)cc2[C@H](NC=O)C[C@@H]1C (racemic) | 6310 nM | 5.3 | 6310 nM | 15800 nM | 
CC(=O)N1c2ccc(-c3ccc(C(N)=O)cc3)cc2[C@H](Nc2ccc(Cl)cc2)C[C@@H]1C (racemic) | 501 nM | 7.8 | 398 nM | 794 nM | 
CC(=O)N1c2ccc(-c3ccc(CN4CCCCC4)cc3)cc2[C@H](Nc2ccccc2)C[C@@H]1C (racemic) |  | 7.9 |  |  | solubility at 16 h [5]: 111 µg/mL (≈ 245 µM)
CC(=O)N1c2ccc(-c3ccc(CN4CCCCC4)cc3)cc2[C@H](N)C[C@@H]1C (racemic) | 25100 nM | <5 | 25100 nM | 50100 nM | 
CCCCC(=O)N1c2ccccc2C(Nc2ccccc2)CC1C (mixture of isomers) |  |  |  |  | fold change (FC) (HepG2 [6]): <=1.1
CC(=O)N1c2ccc(-c3cccc(C(=O)O)c3)cc2[C@H](Nc2ccc(Cl)cc2)C[C@@H]1C (racemic) | 794 nM | 7.4 | 501 nM | 794 nM | 
CC(=O)N1c2ccccc2[C@@H](Nc2ccc(C)cc2)C[C@@H]1C (racemic) |  |  |  |  | fold change (FC) (HepG2 [7]): 1.1
COC(=O)c1cccc(-c2ccc3c(c2)[C@H](Nc2ccc(Cl)cc2)C[C@H](C)N3C(C)=O)c1 (racemic) | 1000 nM | 7.2 | 1000 nM | 2000 nM | 
CC(=O)N1c2ccc(-c3ccc(C(=O)O)cc3)cc2[C@H](Nc2ccc(C)cc2)C[C@@H]1C (racemic) | 631 nM | 7.8 | 316 nM | 501 nM | 
CC(=O)N1c2ccc(-c3ccc(C(=O)O)cc3)cc2[C@H](Nc2ccc(Cl)cc2)C[C@@H]1C |  |  |  |  | inhibition (Mus musculus [8]): Active; inhibition (Mus musculus [9]): Dose-dependent effect
CC(=O)N1c2ccc(-c3ccc(CN4CCCCC4)cc3)cc2[C@H](Nc2ccc(Cl)cc2)C[C@@H]1C (racemic) | 1000 nM | 8 | 1260 nM | 1000 nM | 
COc1ccc(-c2ccc3c(c2)[C@H](Nc2ccccc2)C[C@H](C)N3C(C)=O)cc1 (racemic) | 631 nM | 7.2 | 631 nM | 1260 nM | solubility at 16 h [5]: 92 µg/mL (≈ 238 µM)
COC(=O)c1ccc(-c2ccc3c(c2)[C@H](Nc2ccc(C(C)(C)C)cc2)C[C@H](C)N3C(C)=O)cc1 (racemic) | 631 nM | 6.9 | 501 nM | 501 nM | 
CC(=O)N1c2ccc(-c3ccc(CN4CCCCC4)cc3)cc2[C@H](Nc2ccccc2)C[C@@H]1C | 398 nM | 8 | 316 nM | 501 nM | IC50 (PBMC): 3.16 nM; CLH (Hepatocyte [10]): 0.8 mL/min/g; IC50 (Cytochrome P450 2C9): 14000 nM; IC50 (Cytochrome P450 2D6): 8000 nM; CLH [11]: 0.9 mL/min/g; CLH (Hepatocyte [12]): 1.8 mL/min/g; CLH [13]: 6 mL/min/g; IC50 (Cytochrome P450 1A2): > 33000 nM; IC50 (Cytochrome P450 3A4 [14]): 10000 nM; IC50 (Blood): 63.1 nM; solubility ([5]; simulated gi fluid, 16 h): 125 µg/mL (≈ 276 µM); IC50 (Cytochrome P450 2C19): 20000 nM; IC50 (Cytochrome P450 3A4 [15]): 2000 nM
COc1ccc(-c2ccc3c(c2)[C@H](Nc2ccccc2)CCN3C(C)=O)cc1 (racemic) | 2510 nM | 6.1 | 1580 nM | 6310 nM | 
CC(=O)N1c2ccc(-c3ccc(C(=O)O)cc3)cc2[C@H](Nc2ccccc2)C[C@@H]1C (racemic) | 501 nM | 7.3 | 398 nM | 631 nM | solubility at 16 h [5]: 118 µg/mL (≈ 295 µM)
CC(=O)N1c2ccc(-c3ccc(C(=O)O)cc3)cc2[C@H](Nc2ccc(C)cc2)C[C@@H]1C | 251 nM | 8 | 158 nM | 200 nM | 
CC(=O)N1c2ccc(-c3ccccc3C)cc2[C@H](Nc2ccc(Cl)cc2)C[C@@H]1C (racemic) | 3980 nM | 5.6 | 2510 nM | 3980 nM | 
CC(=O)N1c2ccc(-c3cccc(CN4CCCCC4)c3)cc2[C@H](Nc2ccccc2)C[C@@H]1C (racemic) | 794 nM | 7.1 | 398 nM | 1260 nM | solubility at 16 h [5]: 99 µg/mL (≈ 218 µM)
CC(=O)N1c2ccccc2[C@H](Nc2ccccc2)C[C@@H]1C (racemic) |  |  |  |  | fold change (FC) (HepG2 [7]): 1.7

SMILES | IC50 [1] | pEC170 (HepG2 [2]) | IC50 [3] | IC50 [4] | also measured
COc1cccc(N[C@@H]2C[C@H](C)N(C(C)=O)c3ccc(-c4ccc(C(=O)O)cc4)cc32)c1 (racemic) | 501 nM | 7.3 | 501 nM | 631 nM | 
CC(=O)N1c2ccc(-c3ccc(C(F)(F)F)cc3)cc2[C@H](Nc2ccccc2)C[C@@H]1C (racemic) | 1000 nM | 6.2 | 1260 nM | 2000 nM | 
CC(=O)N1c2ccc(-c3ccc(C#N)cc3)cc2[C@H](Nc2cccc(F)c2)C[C@@H]1C (racemic) | 1000 nM | 6.8 | 794 nM | 1260 nM | 
CC(=O)N1c2ccc(-c3ccc(CO)cc3)cc2[C@H](Nc2ccccc2)C[C@@H]1C (racemic) | 501 nM | 7.5 | 501 nM | 794 nM | solubility at 16 h [5]: 73 µg/mL (≈ 189 µM)
COC(=O)c1ccc(-c2ccc3c(c2)[C@H](Nc2ccccc2)C[C@H](C)N3C(C)=O)cc1 (racemic) | 1260 nM | 7.4 | 1000 nM | 1260 nM | solubility at 16 h [5]: 69 µg/mL (≈ 166 µM)
CCC(=O)N1c2ccccc2C(Nc2ccccc2)CC1C (mixture of isomers) |  |  |  |  | fold change (FC) (HepG2 [6]): 1.4; fold change (FC) (HepG2 [7]): 1.6
CC(=O)N1c2ccccc2[C@@H](Nc2ccc(C)cc2)C[C@H]1C (racemic) |  |  |  |  | fold change (FC) (HepG2 [7]): 1.7
CC(=O)N1c2ccc(-c3ccc(CN4CCOCC4)cc3)cc2[C@H](Nc2ccccc2)C[C@@H]1C (racemic) | 501 nM | 7.6 | 631 nM | 794 nM | solubility at 16 h [5]: 107 µg/mL (≈ 235 µM)
COC(=O)c1ccc(-c2ccc3c(c2)[C@H](Nc2ccc(S(C)(=O)=O)cc2)C[C@H](C)N3C(C)=O)cc1 (racemic) | 631 nM | 6 | 501 nM | 1260 nM | 
CC(=O)N1c2ccc(-c3ccc(C(=O)O)cc3)cc2[C@H](Nc2ccc(S(C)(=O)=O)cc2)C[C@@H]1C (racemic) | 316 nM | 5.4 | 316 nM | 1000 nM | 
COC(=O)c1ccc(-c2ccc3c(c2)[C@H](Nc2ccc(F)cc2)C[C@H](C)N3C(C)=O)cc1 (racemic) | 794 nM | 7.3 | 1000 nM | 1580 nM | 
CC(=O)N1c2ccccc2C(Nc2ccccc2)CC1C (mixture of isomers) |  |  |  |  | fold change (FC) (HepG2 [6]): 2.3; fold change (FC) (HepG2 [7]): 1.7
COc1ccccc1N[C@@H]1C[C@H](C)N(C(C)=O)c2ccc(-c3ccc(C(=O)O)cc3)cc21 (racemic) | 631 nM | 7.6 | 501 nM | 631 nM | 
COc1cccc(N[C@@H]2C[C@H](C)N(C(C)=O)c3ccc(-c4ccc(C#N)cc4)cc32)c1 (racemic) | 1000 nM | 6.7 | 794 nM | 1580 nM | 
CC(=O)N1c2ccc(-c3ccc(C(=O)O)cc3)cc2[C@H](Nc2ccc(Cl)cc2)C[C@@H]1C (racemic) |  | 7.8 | 398 nM | 398 nM | 
CC(=O)N1c2ccc(-c3ccccc3)cc2[C@H](Nc2ccccc2)C[C@@H]1C (racemic) | 794 nM | 7 | 501 nM | 794 nM | 
CC(=O)N1c2ccc(-c3ccc(C#N)cc3)cc2[C@H](Nc2ccccc2)C[C@@H]1C (racemic) | 631 nM | 7 | 794 nM | 1000 nM | solubility at 16 h [5]: 57 µg/mL (≈ 149 µM)
CCCC(=O)N1c2ccccc2C(Nc2ccccc2)CC1C (mixture of isomers) |  |  |  |  | fold change (FC) (HepG2 [6]): <=1.1
CC(=O)N1c2ccc(-c3ccc(CN4CCCCC4)cc3)cc2[C@@H](Nc2ccccc2)C[C@H]1C | 25100 nM | 5.9 | 25100 nM | 25100 nM | 
